Test results: ChEMBL document CHEMBL4665691, “Callicarpins, Two Classes of Rearranged ent-Clerodane Diterpenoids from Callicarpa Plants Blocking NLRP3 Inflammasome-Induced Pyroptosis” (J Nat Prod, 2020)

Each molecule was assayed on J774.A1 (assay: Cytotoxicity against mouse J774.A1 cells by LDH release assay). Conditions: Mus musculus, J774.A1.
Assay type: functional, cell-based

SMILES | IC50 [µM]
C[C@@H]1CC[C@]2(C)[C@H](CC(=O)[C@H]2C)[C@@]1(C)C[C@H](O)C1=CC(=O)OC1O (some centres not stated) | 1.4
C[C@@H]1CC[C@@]2(C)C(=O)C[C@H](O)CC[C@@H]2[C@@]1(C)C[C@H](O)C1=CC(=O)OC1O (mixture of isomers) | 25.4
CC(=O)O[C@@H]1CC[C@@H]2[C@@](C)(C[C@H](O)C3=CC(=O)O[C@@H]3OC(C)=O)[C@H](C)CC[C@@]2(C)C(=O)C1 | 5.3
C[C@@H]1CC[C@]2(C)[C@H](C[C@H](C(=O)O)[C@]2(C)O)[C@@]1(C)C[C@H](O)C1=CC(=O)OC1O (some centres not stated) | 24.7
COC(=O)[C@H]1C[C@@H]2[C@@](C)(C[C@H](O)C3=CC(=O)OC3O)[C@H](C)CC[C@@]2(C)[C@@]1(C)O (some centres not stated) | 1.5
CC1=CCC[C@@H]2[C@@](C)(C[C@H](O)C3=CC(=O)OC3O)[C@H](C)CC[C@@]12C (some centres not stated) | 3.6

Same assay, conditions: j774.a1

SMILES | IC50 [µM]
C[C@@H]1CC[C@@]2(C)C(=O)C[C@@H](O)CC[C@@H]2[C@@]1(C)C[C@H](O)C1=CC(=O)OC1O (stereo in doubt; 1) | 16.6
